Results on two compounds are retold here after ChEMBL document CHEMBL5365449, “Permeation behavior of porphyrin derivatives with different functional group positions across cancer cell membranes” (Bioorg Med Chem Lett, 2023).

The nature of data set [1]: Drug accumulation of the compound in human MCF7 cells assessed as accumulation at lysosome by fluorescence microscopy. Type of data set: ADME, subcellular.
Data set [2] in a line: Drug accumulation of the compound in human MCF7 cells assessed as accumulation at mitochondria by fluorescence microscopy. It is filed as ADME.
Data set [3] can be described thus: Drug accumulation of the compound in human MCF7 cells assessed as accumulation at 4 degC by fluorescence microscopy. It is filed as ADME, cell-based.
A short description of data set [4]: Drug uptake in human MCF7 cells assessed as increase in internalization by measuring fold increase of fluorescence intensity in the presence of LDL by fluorescence spectrum analysis. It is filed as ADME, cell-based.

Turning to `O=C(Nc1ccc(-c2c3nc(c(-c4ccccc4)c4ccc([nH]4)c(-c4ccccc4)c4nc(c(-c5ccccc5)c5ccc2[nH]5)C=C4)C=C3)cc1)c1ccccc1`, the Drug uptake entry in data set [1] is given as “Active”; in data set [2] it was “Active”; in data set [3] it was 3.7 10^-2microM. Also, the “fold change (FC)” value in data set [4] was 6.
Regarding `O=C(NC1=Cc2nc1c(-c1ccccc1)c1ccc([nH]1)c(-c1ccccc1)c1nc(c(-c3ccccc3)c3ccc([nH]3)c2-c2ccccc2)C=C1)c1ccccc1`, the Drug uptake entry in data set [1] is given as “Active”; in data set [2], “Active”; in data set [3], 7.5 10^-2microM. In addition, the “fold change (FC)” value in data set [4] is listed as 12.
